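These data come from cells grown in 96-well plates and exposed to compound for 48 hours at five concentrations. TGI marks complete inhibition of growth.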
Columns and labels:
Test in all cases: growth of human tumour cells (NCI), 48 h
M14 melanoma = system: M14 melanoma
TK-10 renal = system: TK-10 renal
COLO 205 colon = system: COLO 205 colon
NCI-H23 lung = system: NCI-H23 lung
SW-620 colon = system: SW-620 colon
DMS 273 small cell lung = system: DMS 273 small cell lung
RXF 393 renal = system: RXF 393 renal
HOP-62 NSCLC = system: HOP-62 NSCLC
A549 NSCLC = system: A549 NSCLC
U251 CNS = system: U251 CNS
SNB-75 CNS = system: SNB-75 CNS
LOX IMVI melanoma = system: LOX IMVI melanoma
UO-31 renal = system: UO-31 renal
SK-MEL-28 melanoma = system: SK-MEL-28 melanoma
SK-MEL-5 melanoma = system: SK-MEL-5 melanoma
SF-539 CNS = system: SF-539 CNS
NCI-H522 lung = system: NCI-H522 lung
K-562 leukemia = system: K-562 leukemia
HCC-2998 colon = system: HCC-2998 colon
OVCAR-8 ovarian = system: OVCAR-8 ovarian
KM20L2 colon = system: KM20L2 colon
MALME-3M melanoma = system: MALME-3M melanoma
SK-MEL-2 melanoma = system: SK-MEL-2 melanoma
IGROV1 ovarian = system: IGROV1 ovarian
NCI-H226 lung = system: NCI-H226 lung
SF-295 CNS = system: SF-295 CNS
SNB-19 CNS = system: SNB-19 CNS
DMS 114 small cell lung = system: DMS 114 small cell lung
SF-268 CNS = system: SF-268 CNS
SN12C renal = system: SN12C renal
ACHN renal = system: ACHN renal
OVCAR-5 ovarian = system: OVCAR-5 ovarian
KM12 colon = system: KM12 colon
HOP-18 NSCLC = system: HOP-18 NSCLC
NCI-H460 lung = system: NCI-H460 lung
CAKI-1 renal = system: CAKI-1 renal
HCT-116 colon = system: HCT-116 colon
SNB-78 CNS = system: SNB-78 CNS
EKVX NSCLC = system: EKVX NSCLC
MOLT-4 leukemia = system: MOLT-4 leukemia
A498 renal = system: A498 renal
M19-MEL melanoma = system: M19-MEL melanoma
RPMI-8226 leukemia = system: RPMI-8226 leukemia
HOP-92 NSCLC = system: HOP-92 NSCLC
HCT-15 colon = system: HCT-15 colon
UACC-62 melanoma = system: UACC-62 melanoma
SK-OV-3 ovarian = system: SK-OV-3 ovarian
DLD-1 colon = system: DLD-1 colon
HL-60(TB) leukemia = system: HL-60(TB) leukemia
OVCAR-4 ovarian = system: OVCAR-4 ovarian
OVCAR-3 ovarian = system: OVCAR-3 ovarian
UACC-257 melanoma = system: UACC-257 melanoma
HT29 colon = system: HT29 colon
786-0 renal = system: 786-0 renal
LXFL 529 NSCLC = system: LXFL 529 NSCLC
CCRF-CEM leukemia = system: CCRF-CEM leukemia
SR leukemia = system: SR leukemia

SMILES: CN(C)C(=O)OC(Cn1cncn1)c1ccc(Cl)cc1Cl (stereo not given)
- TGI (M14 melanoma): > 100 µM
- TGI (TK-10 renal): > 100 µM
- TGI (COLO 205 colon): > 100 µM
- TGI (NCI-H23 lung): > 100 µM
- TGI (SW-620 colon): > 100 µM
- TGI (DMS 273 small cell lung): > 100 µM
- TGI (RXF 393 renal): > 100 µM
- TGI (HOP-62 NSCLC): > 100 µM
- TGI (A549 NSCLC): > 100 µM
- TGI (U251 CNS): > 100 µM
- TGI (SNB-75 CNS): > 100 µM
- TGI (LOX IMVI melanoma): > 100 µM
- TGI (UO-31 renal): > 100 µM
- TGI (SK-MEL-28 melanoma): > 100 µM
- TGI (SK-MEL-5 melanoma): > 100 µM
- TGI (SF-539 CNS): > 100 µM
- TGI (NCI-H522 lung): > 100 µM
- TGI (K-562 leukemia): > 100 µM
- TGI (HCC-2998 colon): > 100 µM
- TGI (OVCAR-8 ovarian): > 100 µM
- TGI (KM20L2 colon): > 100 µM
- TGI (MALME-3M melanoma): > 100 µM
- TGI (SK-MEL-2 melanoma): > 100 µM
- TGI (IGROV1 ovarian): > 100 µM
- TGI (NCI-H226 lung): > 100 µM
- TGI (SF-295 CNS): > 100 µM
- TGI (SNB-19 CNS): > 100 µM
- TGI (DMS 114 small cell lung): > 100 µM
- TGI (SF-268 CNS): > 100 µM
- TGI (SN12C renal): > 100 µM
- TGI (ACHN renal): > 100 µM
- TGI (OVCAR-5 ovarian): > 100 µM
- TGI (KM12 colon): > 100 µM
- TGI (HOP-18 NSCLC): > 100 µM
- TGI (NCI-H460 lung): > 100 µM
- TGI (CAKI-1 renal): > 100 µM
- TGI (HCT-116 colon): > 100 µM
- TGI (SNB-78 CNS): > 100 µM
- TGI (EKVX NSCLC): > 100 µM
- TGI (MOLT-4 leukemia): > 100 µM
- TGI (A498 renal): > 100 µM
- TGI (M19-MEL melanoma): > 100 µM
- TGI (RPMI-8226 leukemia): > 100 µM
- TGI (HOP-92 NSCLC): > 100 µM
- TGI (HCT-15 colon): > 100 µM
- TGI (UACC-62 melanoma): > 100 µM
- TGI (SK-OV-3 ovarian): > 100 µM
- TGI (DLD-1 colon): > 100 µM
- TGI (HL-60(TB) leukemia): > 100 µM
- TGI (OVCAR-4 ovarian): > 100 µM
- TGI (OVCAR-3 ovarian): > 100 µM
- TGI (UACC-257 melanoma): > 100 µM
- TGI (HT29 colon): > 100 µM
- TGI (786-0 renal): > 100 µM
- TGI (LXFL 529 NSCLC): > 100 µM

SMILES: COC(=O)C(=O)C1(CCC(C)=O)c2ccccc2-c2c(C)ccc(C)c21 (stereo not given)
- TGI (M14 melanoma): > 100 µM
- TGI (TK-10 renal): > 100 µM
- TGI (COLO 205 colon): > 100 µM
- TGI (NCI-H23 lung): > 100 µM
- TGI (SW-620 colon): > 100 µM
- TGI (CCRF-CEM leukemia): > 100 µM
- TGI (DMS 273 small cell lung): > 100 µM
- TGI (RXF 393 renal): 76.1 µM
- TGI (SR leukemia): 61.5 µM
- TGI (HOP-62 NSCLC): > 100 µM
- TGI (A549 NSCLC): > 100 µM
- TGI (U251 CNS): > 100 µM
- TGI (SNB-75 CNS): > 100 µM
- TGI (LOX IMVI melanoma): > 100 µM
- TGI (UO-31 renal): > 100 µM
- TGI (SK-MEL-28 melanoma): > 100 µM
- TGI (SK-MEL-5 melanoma): 65.2 µM
- TGI (NCI-H522 lung): 94.1 µM
- TGI (K-562 leukemia): > 100 µM
- TGI (HCC-2998 colon): > 100 µM
- TGI (OVCAR-8 ovarian): > 100 µM
- TGI (KM20L2 colon): > 100 µM
- TGI (MALME-3M melanoma): > 100 µM
- TGI (SK-MEL-2 melanoma): > 100 µM
- TGI (IGROV1 ovarian): > 100 µM
- TGI (NCI-H226 lung): > 100 µM
- TGI (SF-295 CNS): > 100 µM
- TGI (SNB-19 CNS): > 100 µM
- TGI (DMS 114 small cell lung): > 100 µM
- TGI (SF-268 CNS): > 100 µM
- TGI (SN12C renal): > 100 µM
- TGI (ACHN renal): > 100 µM
- TGI (OVCAR-5 ovarian): > 100 µM
- TGI (KM12 colon): > 100 µM
- TGI (HOP-18 NSCLC): > 100 µM
- TGI (NCI-H460 lung): > 100 µM
- TGI (CAKI-1 renal): > 100 µM
- TGI (HCT-116 colon): > 100 µM
- TGI (SNB-78 CNS): 78.5 µM
- TGI (EKVX NSCLC): > 100 µM
- TGI (MOLT-4 leukemia): 66 µM
- TGI (A498 renal): > 100 µM
- TGI (M19-MEL melanoma): > 100 µM
- TGI (RPMI-8226 leukemia): 78.6 µM
- TGI (HCT-15 colon): > 100 µM
- TGI (UACC-62 melanoma): > 100 µM
- TGI (SK-OV-3 ovarian): > 100 µM
- TGI (DLD-1 colon): > 100 µM
- TGI (HL-60(TB) leukemia): 32.1 µM
- TGI (OVCAR-4 ovarian): > 100 µM
- TGI (OVCAR-3 ovarian): > 100 µM
- TGI (UACC-257 melanoma): 91.8 µM
- TGI (HT29 colon): > 100 µM
- TGI (786-0 renal): > 100 µM
- TGI (LXFL 529 NSCLC): > 100 µM

— PubChem BioAssay (NCI)
